Measurements reported in patent US20120196854A1, “PHARMACEUTICAL COMPOSITION COMPRISING AROMATIC HETEROCYCLIC COMPOUND” (Kyowa Hakko Kirin Co., Ltd., priority 2009, published 2012).

Key:
[1] = system: antigen-induced nasal congestion in rats; assay: Effect on antigen-induced nasal congestion in rats; type: in vivo, rat; conditions: 10 mg/kg orally, 1 hour before nasal antigen; OVA-sensitized BN rats
Procedure: Six-week-old male BN/CrljCrlj SPF/VAF rats were purchased from Charles River Japan (Hino, Kanagawa) and used for experiments. Equal amounts of a 0.4 mg/mL ovalbumin/saline solution (OVA: Grade III, Cat. No. A-5378, Sigma-Aldrich, St. Louis, Mo., USA) and a 20 mg/mL suspension of aluminum hydroxide (alum: Cat. No. 014-01925, Wako Pure Chemical Industries) in saline were mixed to give a sensitizing fluid. First, a suspension of inactivated killed pertussis bacteria (Cat. No. 15330-91, Nacalai Tesque, Tokyo) was doubly diluted with saline. The diluted suspension was subcutaneously administered on the back of each rat at a dose of 0.1 mL (containing 10 billion bacterial cells) per rat, and immediately after that, the sensitizing fluid was intraperitoneally administered at a dose of 1 mL per rat. […]
The nasal congestion was evaluated based on the elevation of the intranasal pressure determined in the following manner. […] The pressure inside the nasal cavity was detected using a pressure transducer branched from the end of the cannula for measurement, and analyzed using Win-PULMOS-III (M.I.P.S. Inc., Osaka). The pressure inside the nasal cavity was measured for 3 minutes immediately after the connection to the cannula for measurement and the artificial ventilator, and the data was calculated for a 3-minute average.

[2] = system: PGD2 production in mouse ear; assay: Inhibitory effect on PGD2 production in mouse ear caused by allergic reaction; type: in vivo; conditions: 10 mg/kg orally, 1 hour before inducing antigen-antibody reaction; BALB/c mice
Procedure: A test of PGD2 production in the mouse ear caused by allergic reaction was conducted according to the evaluation method of passive cutaneous anaphylaxis in the mouse ear by Inagaki et al. (Int.Arch.AllergyAppl. Immunol., 1988, 86 (3), 325-30) with some alteration. […]
One hour after the induction of antigen-antibody reaction, the mice were killed by cervical dislocation and the ears were cut off with scissors. […] The harvested pieces of ear tissue were immediately frozen in liquid nitrogen, and preserved at −80° C. until measurement of the quantity of PGD2.
The quantity of PGD2 was determined in the following manner. […]

cyclooxygenase-1 (COX-1) = cyclooxygenase-1 (COX-1) (Homo sapiens, UniProt P23219); assay: Inhibition of COX-1 enzyme activity; type: biochemical; conditions: at a concentration of 10 μmol/L; read-out: inhibitory rate, COX-1
Chain of cyclooxygenase-1 (COX-1) (P23219 24-599, species assumed): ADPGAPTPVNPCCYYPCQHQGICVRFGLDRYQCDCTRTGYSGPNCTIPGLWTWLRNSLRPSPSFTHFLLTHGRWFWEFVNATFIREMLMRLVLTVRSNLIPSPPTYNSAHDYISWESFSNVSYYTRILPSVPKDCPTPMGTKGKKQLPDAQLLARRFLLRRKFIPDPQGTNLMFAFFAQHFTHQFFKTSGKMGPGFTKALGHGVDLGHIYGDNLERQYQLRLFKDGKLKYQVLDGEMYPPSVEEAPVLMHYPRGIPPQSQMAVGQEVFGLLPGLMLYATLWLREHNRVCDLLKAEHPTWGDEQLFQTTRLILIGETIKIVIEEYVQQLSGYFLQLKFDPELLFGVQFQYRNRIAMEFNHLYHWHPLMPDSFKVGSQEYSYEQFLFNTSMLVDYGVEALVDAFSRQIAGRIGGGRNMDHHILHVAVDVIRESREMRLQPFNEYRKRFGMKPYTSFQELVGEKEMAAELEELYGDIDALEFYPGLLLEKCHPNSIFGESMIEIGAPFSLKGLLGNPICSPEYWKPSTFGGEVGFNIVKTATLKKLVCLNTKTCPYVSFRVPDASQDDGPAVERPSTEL

O=C(O)c1cc(-c2ccco2)nc2ccc3nn(-c4ccccc4)nc3c12 [Compound 133, 7-(furan-2-yl)-2-phenyl-2H-[1,2,3]triazolo[4,5-f]quinoline-9-carboxylic acid]
inhibition of antigen-induced nasal congestion (intranasal pressure) [1]: 55% | inhibition of PGD2 production in mouse ear caused by allergic reaction [2]: 88% | inhibition at 10 µM (cyclooxygenase-1 (COX-1)): ≤ 20%
